# Tests used:
# IFNα/β mRNA = type: cell-based
# influenza virus = type: cell-based
# in vitro [1] = conditions: African green monkey
# in vitro [2] = conditions: human
# [3] = rat, in vivo, 10 mg/kg; cited from earlier work
structure (smiles),measurement,setting,value
"O=C(O[C@@H]1[C@@H](O)[C@H](Oc2cc(O)c(C(=O)CCc3ccccc3)c(O)c2)O[C@@H]2COC(=O)c3cc(O)c(O)c(O)c3-c3c(cc(O)c(O)c3O)C(=O)O[C@@H]12)c1cc(O)c(O)c(O)c1 [Compound 46, Thonningianin A]",effect on IFNα/β mRNA expression levels,IFNα/β mRNA,did not significantly affect
same,effect on influenza virus replication,influenza virus,did not significantly affect
same,CC50,in vitro [1],10.6 µM
same,CC50,in vitro [2],20.2 µM
same,t₁/₂,[3],3.69 h

# Reference: article PMC11966994 (Emerging Microbes & Infections, 2025)
